# In patent US20260193265A1, “Phyllochlorin analogues suitable for use in photodynamic therapy (PDT)” (RMW CHO Group Limited, priority 2022, published 2026):
# Structures can show the parent of a compound that is named as a salt. Where two headings read alike, the source gives them in different places.
# Columns and labels:
# [1] = tested on: Human ovarian cancer cell line SKOV3; assay: Phototoxicity in SKOV3 cells after 652 nm laser activation (AlamarBlue viability); format: cell-based; conditions: for range of phototoxicity IC90 values in vitro: result in words
# Description: Samples were stored at 4° C. protected from light.
# All data are shown as mean±SD (where appropriate).
# To test for phototoxicity, cells incubated with phyllochlorin analogues (0-10 μM in DMSO) had culture media replaced after 24 hours (as above) and were then exposed to a 652 nm laser (Invion) with laser density at 50 mW/cm^2 for 5 mins (total 15 J/cm^2). Following activation, cells were cultured for a further 24 hours. Media was then replaced with fresh media containing AlamarBlue, and % viable cells remaining assessed as above. Controls included cells treated with phyllochlorin analogues but not activated by laser light; cells without phyllochlorin analogue treatment but with laser light; and untreated controls. All measurements were made in quadruplicate.
# [2] = tested on: Human ovarian cancer cell line SKOV3
# Description: (§1) Photosensitizers (e.g. phyllochlorin analogue, chlorin e4 disodium (provided by Advanced Molecular Technologies, Scoresby) or Talaporfin sodium (purchased from Focus Bioscience cat #HY-16477-5MG)) were resuspended in 100% dimethylsulfoxide (DMSO) at a concentration of 5.5 mM. Samples were stored at 4° C. protected from light.
# (§2) For in vitro experiments, photosensitizers (stock solution 5.5 mM in 100% DMSO) were diluted 1:100 in concentrated excipient solution (final 55 μM photosensitizer in 10% w/v Kollidon-12, 42.4% w/v polysorbate 80, 0.6% w/v citric acid anhydrous, 40% w/v ethanol, 1.0% DMSO). Serial dilutions were prepared in cell culture media (Dulbecco's Modified Eagle Medium/Nutrient Mixture F-12 (DMEM/F-12)) supplemented with 10% v/v Fetal Bovine Serum, 100 U/mL penicillin, 100 μg/mL streptomycin and the same excipient solution at a constant 1:55 dilution.
# (§3) Human ovarian cancer cell line SKOV3 (ATCC #HTB-77) was maintained in Dulbecco's Modified Eagle Medium/Nutrient Mixture F-12 (DMEM/F-12), supplemented with 10% v/v Fetal Bovine Serum, 100 U/mL penicillin and 100 μg/mL streptomycin. Monolayer cultures were grown in a humidified incubator at 37° C. with 5% CO2. Once cells had reached ~80% confluence, spent media was replaced with media containing photosensitizer at the required concentration and cells were incubated for the desired period of time to allow photosensitizer uptake.
# (§4) All data were analysed using GraphPad PRISM v8.3.1 (549) (GraphPad Software, CA). Spectral absorbance and viability measurements were normalized in the range 0-100%, with a minimum of 0 and a maximum value determined from the dataset. Dose response was determined using a sigmoidal four-point non-linear regression with variable slope, and IC10 or IC90 calculated for each compound. All data are shown as mean±SD (where appropriate).
# (§5) SKOV3 cells were seeded in 96-well black wall plates (Greiner #655090) at a cell density of 5000 cells in 100 μl culture medium per well. On reaching ~60% confluence, media was aspirated and replaced with fresh media containing the relevant phyllochlorin analogue from 0-100 μM in DMSO. Cells were incubated for a further 24 hours, allowing uptake of phyllochlorin analogues.
# (§6) To test for inherent cytotoxicity (i.e. “dark toxicity”) of the phyllochlorin analogues, the culture media was replaced after 24 hours with fresh media containing 10% (v/v) AlamarBlue Cell Viability Reagent (ThermoFisher) and cells incubated at 37° C. for 6 hours. Untreated cells were used as a control. Fluorescence (Ex 555 nm/Em 596 nm) was measured using a Cytation 3 Cell Imaging Multi-Mode Reader (Biotek), and cytotoxicity assessed according to the % viable cells remaining. All measurements were made in quadruplicate.
# (§7) The phototoxicity and inherent cytotoxicity (i.e. “dark toxicity”) of several phyllochlorin analogues were assessed as previously using SKOV3 ovarian cancer cells. For comparative purposes, phyllochlorin analogues were compared against chlorin e4 disodium and Talaporfin sodium, a clinically approved photosensitizer used in the photodynamic treatment of lung cancers. Phototoxicity IC90 values and dark toxicity IC10 values were calculated using a log[inhibitor]-vs normalized response dose curve with variable slope, using the formula Y=100/(1+(IC90/X)^HillSlope (phototoxicity IC90)) or Y=100/(1+(IC10/X)^HillSlope (dark toxicity IC10)).
# [3] = tested on: Human ovarian cancer cell line SKOV3; assay: Inherent cytotoxicity (dark toxicity) in SKOV3 cells (AlamarBlue viability); conditions: 24 hours incubation, no light, AlamarBlue 6 hours
# Description: as §1, §2, §3, §4, §5, §6, §7
# [4] = Homo sapiens, SK-OV-3, light or radiation study, 652 nm laser, read-out: apparent phototoxicity IC90
# [5] = Homo sapiens, SK-OV-3, light or radiation study, 24 hours uptake, 652 nm laser 50 mW/cm^2 for 5 mins (total 15 J/cm^2), viability 24 hours after activation, read-out: Phototoxicity μM (IC90)
Structure (SMILES),"IC90 ([1]; 24 hours uptake, 652 nm laser 50 mW/cm^2 for 5 mins (total 15 J/cm^2), viability 24 hours after activation, read-out: Phototoxicity μM (IC90)) [µM]",range of phototoxicity IC90 values in vitro [1],Dark toxicity μM (IC10) [2] [µM],"IC90 [1, 4] [µM]","IC90 [1, 5] [µM]","Dark toxicity μM (IC10) ([2]; human, 24 h) [µM]",Dark toxicity μM (IC10) [3] [µM]
"C=Cc1c(C)c2cc3nc(c(C)c4[nH]c(cc5nc(cc1[nH]2)C(C)=C5CC)c(C)c4C(=O)O)[C@@H](CCC(=O)O)[C@@H]3C [Chlorin e4 disodium, reference compound]",21.3,μM range,40.23,,,,
"C=Cc1c(C)c2cc3nc(c(C)c4cc(C)c(cc5nc(cc1[nH]2)C(C)=C5CC)[nH]4)[C@@H](CCCN)[C@@H]3C [Compound 7, phyllochlorin 3-aminopropyl]",,,,< 0.1,0.05,11.55,
"C=Cc1c(C)c2cc3nc(c(C)c4cc(C)c(cc5nc(cc1[nH]2)C(C)=C5CC)[nH]4)[C@@H](CCCO)[C@@H]3C [Compound 1, 3-((7S,8S)-18-ethyl-2,5,8,12,17-pentamethyl-13-vinyl-7H,8H-porphyrin-7-yl)propan-1-ol]",,,,,0.12,46.10,
"C=Cc1c(C)c2cc3nc(c(C)c4cc(C)c(cc5nc(cc1[nH]2)C(C)=C5CC)[nH]4)[C@@H](CCC[P+](c1ccccc1)(c1ccccc1)c1ccccc1)[C@@H]3C [Compound 10, phyllochlorin 3-triphenylphosphoniumpropyl iodide]",,,,,0.003,,4.52
"C=Cc1c(C)c2cc3nc(c(CC(=O)N[C@@H](CC(=O)O)C(=O)O)c4[nH]c(cc5nc(cc1[nH]2)C(C)=C5CC)c(C)c4C(=O)O)[C@@H](CCC(=O)O)[C@@H]3C [Talaporfin sodium, reference compound]",,μM range,,,,11.10,
"C=Cc1c(C)c2cc3nc(c(C)c4cc(C)c(cc5nc(cc1[nH]2)C(C)=C5CC)[nH]4)[C@@H](CCCSCCCS[C@@H]1O[C@H](CO)[C@@H](O)[C@H](O)[C@H]1O)[C@@H]3C [Compound 4, (2S,3R,4S,5S,6R)-2-((3-((3-((7S,8S)-18-ethyl-2,5,8,12,17-pentamethyl-13-vinyl-7H,8H-porphyrin-7-yl)propyl)thio)propyl)thio)-6-(hydroxymethyl)tetrahydro-2H-pyran-3,4,5-triol]",,,,< 0.1,0.07,23.13,
C=Cc1c(C)c2cc3nc(c(C)c4cc(C)c(cc5nc(cc1[nH]2)C(C)=C5CC)[nH]4)[C@@H](CCCS[C@@H]1O[C@H](CO)[C@@H](O)[C@H](O)[C@H]1O)[C@@H]3C [Compound 5],,,,< 0.1,0.05,13.18,
"C=Cc1c(C)c2cc3nc(c(C)c4cc(C)c(cc5nc(cc1[nH]2)C(C)=C5CC)[nH]4)[C@@H](CCC[n+]1ccccc1)[C@@H]3C [Compound 9, phyllochlorin 3-pyridiniumpropyl iodide]",,,,,0.006,,4.91
"C=Cc1c(C)c2cc3nc(c(C)c4cc(C)c(cc5nc(cc1[nH]2)C(C)=C5CC)[nH]4)[C@@H](CCCOC(C)=O)[C@@H]3C [Compound 2, 3-((7S,8S)-18-ethyl-2,5,8,12,17-pentamethyl-13-vinyl-7H,8H-porphyrin-7-yl)propyl acetate]",,,,,0.48,66.93,
"C=Cc1c(C)c2cc3nc(c(C)c4cc(C)c(cc5nc(cc1[nH]2)C(C)=C5CC)[nH]4)[C@@H](CCCNC(=O)[C@@H](N)C(C)C)[C@@H]3C [Compound 8, phyllochlorin 3-aminopropyl-valine amide hydrochloride]",,,,< 0.1,0.09,11.89,
